Data taken from patent publication US6086880A, “Rotavirus peptide compositions and methods of use” (The University of Saskatchewan, priority 1993, dated 2000).
No end group written: not given here.

How the values were obtained:
VP6 45 kd capsid protein = test: Binding of 232-255 peptide to VP6 of purified virus (laddering on polyacrylamide gel electrophoresis)
Excerpt: Laddering occurred both at the VP6 monomeric molecular weight of 45 kd and at the aggregate molecular weights of 90 kd and 135 kd regions. The increment in the ladder steps matched the MW of the 232-255 peptide. Trypsin treatment of the virus/peptide complex reduced the ladder to a virus profile identical with that of the trypsin-treated virus. The ladder could be detected with antisera produced against the synthetic peptide.

trypsin = test: Trypsin susceptibility and competition with intact VP4 for trypsin; assay type: biochemical; details: for cleavage of VP4 by trypsin in presence of peptide: FIG. 8
Experimental: Susceptibility of the synthetic peptide to trypsin was confirmed by reaction with trypsin followed by electrophoresis. […] It was also established that the peptide could compete with intact VP4 for the enzyme. This was determined by measuring the ability of increasing concentrations of the synthetic peptide to reduce the amount of VP4 cleaved into the two products of molecular weight 60 kd and 28 kd.

[1] = system: infectious virus on MA104 cells; test: Plaque reduction by 232-255 peptide mixed with infectious virus on MA104 cells; assay type: cell-based; details: 100 pfu virus with 100 μg, 200 μg and 300 μg peptide
Experimental: In a protocol similar to a standard plaque reduction assay, MA104 cells were treated with 100 pfu of the virus in the absence of and in the presence of 100 μg, 200 μg and 300 μg of the 232-255 peptide.

BRV strain C486 = test: Prophylactic oral 232-255 peptide in neonatal mice before challenge; assay type: in vivo; parameters: key to Diarrheal Score: 0: no sign of diarrhea in live mice, or on necropsy; +: no external signs of diarrhea but semi-liquid colon contents at autopsy; ++: fluid was apparent on palpation of the abdomen and the colon was filled with liquid feces and gas; +++: the external anal region was soiled with feces and intestinal fluid was present on palpation; ++++: liquid feces were present around the anal region and on palpation of the abdomen intestinal fluid was present and oozed from the anus; severe dehydration, internal liquid content in colon and caecum and distention due to accumulation of gas; details: for Diarrheal Score: about one hour before 10^4 pfu; for Virus Titre: mouse intestines; for Plasma D-Xylose: no challenge: 119
Experimental: The 232-255 peptide synthesized in Example 7 was diluted serially in Eagle's Minimal Essential Medium. The peptide solutions of various dilutions were administered in 100 μl dosages to neonatal mice by oral administration. The pups were born of rotavirus-free strain CD-1 dams and administration was at 7 days of age (when the pups weigh about 4 g). Approximately one hour later the mice were challenged with 10^4 pfu of BRV strain C486. Clinical protection was scored as described in Example 6. Diarrhea was scored clinically as well as on necropsy, and plasma D-xylose was determined by administering 100 μl of 5% w/v D-xylose solution, sacrificing the mice two hours later, collecting the blood and determining plasma D-xylose concentration as described above. Virus titers were determined in the mouse intestines by suspending in MEM and homogenizing for virus titration. Mice which received no challenge had plasma D-xylose levels of 119 μg/100 μl and zero viral titers.

[2] = system: Monospecific anti-glycoprotein (VP7) serum; test: ELISA reactivity of synthetic peptides with monospecific anti-VP7 serum; assay type: binding; details: reciprocal of the dilution giving a 50% end point
Experimental: (§1) The reactivity and specificity of the synthetic peptides were determined by ELISA using either anti-VP7 monospecific VP7 serum or monoclonal antibodies specific for the various regions of VP7 and by adsorption blocking assays. […] As shown in the table, while all of the peptides were immunoreactive with the antiserum, only the peptides representing positions 247-259 and 275-295 were specifically immunoreactive with monoclonals directed to particular determinants.
(§2) ^a Antibody titers were determined by ELISA and are expressed as the
(§3) reciprocal of the dilution giving a 50% end point.

[3] = system: Monoclonal antibody 4B5-5; test: ELISA reactivity of synthetic peptides with monoclonal antibody 4B5-5; assay type: binding; details: reciprocal of the dilution giving a 50% end point
Experimental: as §1, §2, §3

[4] = system: Monoclonal antibody 11D10-4; test: ELISA reactivity of synthetic peptides with monoclonal antibody 11D10-4; assay type: binding; details: reciprocal of the dilution giving a 50% end point
Experimental: as §1, §2, §3

[5] = system: Monoclonal antibody 11D12-6; test: ELISA reactivity of synthetic peptides with monoclonal antibody 11D12-6; assay type: binding; details: reciprocal of the dilution giving a 50% end point
Experimental: as §1, §2, §3

[6] = system: Monoclonal antibody 10D207; test: ELISA reactivity of synthetic peptides with monoclonal antibody 10D207; assay type: binding; details: reciprocal of the dilution giving a 50% end point
Experimental: as §1, §2, §3

[7] = system: virus attachment to MA104 cells; test: Adsorption blocking assay: inhibition of attachment of virus to MA104 cells; assay type: cell-based; details: FIG. 5
Experimental: as §1

[8] = system: bovine rotavirus isolate C486; test: 50% plaque reduction assay on sera of mice immunized with KLH-conjugated VP7 peptides; assay type: in vivo, CD-1 mice; details: sera of mice given KLH-conjugated peptides; FIG. 7
Experimental: The sera obtained in Example 3 were tested for their ability to neutralize the infectivity of the bovine rotavirus isolate C486 using a standard 50% plaque reduction assay. In this assay, virus dilutions representing 30-50 PFU were mixed 1:1 with various dilutions of antibody and incubated for 1 hour at 37° C. Virus attachment to MA104 monolayers was allowed to proceed at 37° C. for 2 hours before the virus inoculum was removed; the cells were washed with MEM and then overlaid with 1.6% Bacto-agar (Difco) diluted in MEM and supple-mented with 5 μg of pancreatin per ml, 0.7% of a 1:1000 neutral red stock solution, and 0.1% DEAE-dextran. Plaques appeared after 5 to 6 days of incubation at 37° C.

NIAPASIVSRNIVYTRAQPNDIA [Peptide 232-255]
laddering of VP6 on polyacrylamide gel electrophoresis (VP6 45 kd capsid protein; 25 μg peptide with 2 μg purified virus): laddering was not apparent
laddering of VP6 on polyacrylamide gel electrophoresis (VP6 45 kd capsid protein; 100 μg peptide with 2 μg purified virus, 30 minutes at 37° C.): showed a laddering effect
cleavage of VP4 by trypsin in presence of peptide (trypsin; 25 μg (232-255)/25 μg VP4): complete cleavage of VP4
susceptibility of the peptide to trypsin (trypsin; reaction with trypsin followed by electrophoresis): cleaved by trypsin in a dose-dependent manner
cleavage of VP4 by trypsin in presence of peptide (trypsin; synthetic peptide increased to 200 μg): intact VP4 is evident
plaque reduction [1]: capable of plaque reduction in a dose-dependent manner
Diarrheal Score (BRV strain C486; 100 μg peptide oral): +++
Virus Titre (BRV strain C486; 100 μg peptide oral): 1.2 × 10^3 PFU/ml
Plasma D-Xylose (BRV strain C486; 100 μg peptide oral): 92 μg/100 μl
Diarrheal Score (BRV strain C486; 250 μg peptide oral): ++
Virus Titre (BRV strain C486; 250 μg peptide oral): 4.0 × 10^2 PFU/ml
Plasma D-Xylose (BRV strain C486; 250 μg peptide oral): 70 μg/100 μl
Diarrheal Score (BRV strain C486; 500 μg peptide oral): 0
Virus Titre (BRV strain C486; 500 μg peptide oral): 0 PFU/ml
Plasma D-Xylose (BRV strain C486; 500 μg peptide oral): 101 μg/100 μl
Diarrheal Score (BRV strain C486; 1000 μg peptide oral): 0
Virus Titre (BRV strain C486; 1000 μg peptide oral): 0 PFU/ml
Plasma D-Xylose (BRV strain C486; 1000 μg peptide oral): 112 μg/100 μl

RNCKKLGPRENVA [p247-259]
Antibody titer (ELISA), monospecific anti-glycoprotein (VP7) serum with synthetic peptide [2]: 1,000
Antibody titer (ELISA), monoclonal antibody 4B5-5 with synthetic peptide [3]: 5,000
Antibody titer (ELISA), monoclonal antibody 11D10-4 with synthetic peptide [4]: 4,000
Antibody titer (ELISA), monoclonal antibody 11D12-6 with synthetic peptide [5]: 100
Antibody titer (ELISA), monoclonal antibody 10D207 with synthetic peptide [6]: 20
ability to inhibit attachment of virus to MA104 cells [7]: able to block virus attachment
virus-neutralizing antibodies induced (50% plaque reduction assay) [8]: induced virus-neutralizing antibodies

YQQTDEANK [p174-183]
Antibody titer (ELISA), monospecific anti-glycoprotein (VP7) serum with synthetic peptide [2]: 2,500
Antibody titer (ELISA), monoclonal antibody 4B5-5 with synthetic peptide [3]: 50
Antibody titer (ELISA), monoclonal antibody 11D10-4 with synthetic peptide [4]: 10
Antibody titer (ELISA), monoclonal antibody 11D12-6 with synthetic peptide [5]: 10
Antibody titer (ELISA), monoclonal antibody 10D207 with synthetic peptide [6]: 10
